# Test results reported in patent publication US20030152577A1, “Dye-bioconjugates for simultaneous optical diagnostic and therapeutic applications” (MALLINCKRODT INC., priority 2002, published 2003).
# Key:
# Set-up in all cases: species or system male Lewis rats
# [1] = test system: CA20948 (pancreatic) tumor, rich in somatostatin (SST-2) receptors; test: Non-invasive in vivo fluorescence imaging of CA20948 tumor bearing rat
# From the text: (§1) A non-invasive in vivo fluorescence imaging apparatus was employed to assess the efficacy of indocyanine green (ICG) in three different rat tumor cell lines of the inventive contrast agents developed for tumor detection in animal models. A LaserMax Inc. laser diode of nominal wavelength 780 nm and nominal power of 40 mW was used. The detector was a Princeton Instruments model RTE/CCD-1317-K/2 CCD camera with a Rodenstock 10 mm F2 lens (stock #542.032.002.20) attached. An 830 nm interference lens (CVI Laser Corp., part # F10-830-4-2) was mounted in front of the CCD input lens, such that only emitted fluorescent light from the contrast agent was imaged.
# (§2) Three tumor cell lines, DSL 6/A (pancreatic), Dunning R3327-H (prostate), and CA20948 (pancreatic), which are rich in somatostatin (SST-2) receptors were induced into male Lewis rats by solid implant technique in the left flank area (Achilefu et al., Invest Radiology, 2000, pp. 479-485). Palpable masses were detected nine days post implant.
# The peptide, octreotate, is known to target somatostatin (SST-2) receptors. Therefore, the cyano-octreotates conjugate, Cytate 1, was prepared as described in Example 4. The pancreatic acinar carcinoma, CA20948, was induced into male Lewis rats as described in Example 9.
# Using the CCD camera apparatus, dye localization in the tumor was observed. […]
# [2] = test system: Dunning R3327-H (prostate) tumor; test: Non-invasive in vivo fluorescence imaging of Dunning R3327-H tumor in rats; conditions: 0.5 ml of 0.42 mg/ml in saline, tail vein, images at 2 and 30 minutes post administration
# From the text: as §1, §2
# [3] = test system: DSL 6/A (pancreatic) tumor; test: Non-invasive in vivo fluorescence imaging of DSL 6/A tumor in rats; conditions: 0.5 ml of 0.42 mg/ml in saline, tail vein, images at 2 and 30 minutes post administration
# From the text: as §1, §2
smiles,measurement,setting,value
"CC1(C)C(/C=C/C=C/C=C/C=C2\N(CCCCS(=O)(=O)O)c3ccc4ccccc4c3C2(C)C)=[N+](CCCCS(=O)(=O)[O-])c2ccc3ccccc3c21 [ICG, indocyanine green]",perfusion of the agent into the tumor,"[1]; 0.5 ml of 0.42 mg/ml in saline, tail vein, images at 2 and 30 minutes post administration",only a slight and transient perfusion that was cleared after only 30 minutes post injection
same,non-specific localization into the tumor line,[1]; compared to the other two lines,no non-specific localization
same,perfusion of the agent into the tumor,[2],slow perfusion of the agent into the tumor over time
same,perfusion of the agent into the tumor,[3],slow perfusion of the agent into the tumor over time
